Among the data in patent US20220305115A1 (JANSSEN SCIENCES IRELAND UNLIMITED COMPANY, priority 2019, published 2022) are EC50 and AC50 values, retold here.

Holding throughout (type): cell-based
One assay has as its target T1, human TLR8 (Homo sapiens, UniProt Q9NR97).
T1 construct: host or cells: HEK-Blue human TLR8 cells (HEK293-derived reporter line)
T1 sequence (Q9NR97 27-1041): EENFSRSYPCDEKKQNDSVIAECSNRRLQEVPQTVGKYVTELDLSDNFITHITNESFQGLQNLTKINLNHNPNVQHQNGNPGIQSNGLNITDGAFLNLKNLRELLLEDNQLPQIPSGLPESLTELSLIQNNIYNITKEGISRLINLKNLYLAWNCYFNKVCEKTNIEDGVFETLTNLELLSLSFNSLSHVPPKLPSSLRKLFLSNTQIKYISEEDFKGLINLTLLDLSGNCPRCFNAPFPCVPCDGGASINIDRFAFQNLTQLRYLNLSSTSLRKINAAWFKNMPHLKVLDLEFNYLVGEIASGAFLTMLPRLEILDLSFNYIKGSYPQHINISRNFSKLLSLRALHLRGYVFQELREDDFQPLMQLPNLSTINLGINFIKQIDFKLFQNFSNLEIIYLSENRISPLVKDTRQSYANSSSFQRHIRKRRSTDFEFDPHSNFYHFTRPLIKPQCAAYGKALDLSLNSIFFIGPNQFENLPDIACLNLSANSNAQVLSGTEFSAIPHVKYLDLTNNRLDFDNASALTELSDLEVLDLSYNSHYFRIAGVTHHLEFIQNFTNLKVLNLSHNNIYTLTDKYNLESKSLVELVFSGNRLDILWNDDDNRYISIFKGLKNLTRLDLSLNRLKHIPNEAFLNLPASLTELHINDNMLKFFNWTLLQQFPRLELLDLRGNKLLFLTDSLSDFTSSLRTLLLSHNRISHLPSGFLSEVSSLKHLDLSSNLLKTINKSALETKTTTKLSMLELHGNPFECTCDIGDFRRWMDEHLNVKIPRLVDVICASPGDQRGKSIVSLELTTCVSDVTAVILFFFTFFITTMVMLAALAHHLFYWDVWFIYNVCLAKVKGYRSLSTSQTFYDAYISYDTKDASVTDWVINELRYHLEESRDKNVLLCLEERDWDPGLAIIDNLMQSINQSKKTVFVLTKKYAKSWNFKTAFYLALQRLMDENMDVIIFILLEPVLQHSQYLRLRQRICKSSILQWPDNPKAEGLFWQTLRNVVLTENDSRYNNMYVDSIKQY
As to the kind of experiment: HEK-Blue human TLR8 cell SEAP reporter assay (NF-κB activation). To be noted: HEK-Blue human TLR8 cells, stimulation for 20 hours, Quanti Blue read at 640 nm. An excerpt:
(§1) For TLR8 and TLR7 activity testing, HEK-Blue human TLR8 or TLR7 cells (Invivogen, San Diego, Calif., USA) are used, respectively. These cells are designed for studying the stimulation of human TLR8 or TLR7 by monitoring the activation of NF-κB. A SEAP (secreted embryonic alkaline phosphatase) reporter gene is placed under the control of the IFN-b minimal promoter fused to five NF-κB and AP-1-binding sites. Therefore the reporter expression is regulated by the NF-κB promoter upon stimulation of human TLR8 or TLR7 for 20 hours. The cell culture supernatant SEAP reporter activity was determined using Quanti Blue kit (Invivogen, San Diego, Ca, USA) at a wavelength of 640 nm, a detection medium that turns purple/blue in the presence of alkaline phosphatase. EC50 values were determined using Activity Base analysis (ID Business Solution, Limited).
(In general: Reporter assays use an easily measured gene product as a stand-in for the process of interest.)

The next assay addresses T2, human TLR7 (Homo sapiens, UniProt Q9NYK1).
T2 construct: host or cells: HEK-Blue human TLR7 cells (HEK293-derived reporter line)
T2 sequence (Q9NYK1 27-1049): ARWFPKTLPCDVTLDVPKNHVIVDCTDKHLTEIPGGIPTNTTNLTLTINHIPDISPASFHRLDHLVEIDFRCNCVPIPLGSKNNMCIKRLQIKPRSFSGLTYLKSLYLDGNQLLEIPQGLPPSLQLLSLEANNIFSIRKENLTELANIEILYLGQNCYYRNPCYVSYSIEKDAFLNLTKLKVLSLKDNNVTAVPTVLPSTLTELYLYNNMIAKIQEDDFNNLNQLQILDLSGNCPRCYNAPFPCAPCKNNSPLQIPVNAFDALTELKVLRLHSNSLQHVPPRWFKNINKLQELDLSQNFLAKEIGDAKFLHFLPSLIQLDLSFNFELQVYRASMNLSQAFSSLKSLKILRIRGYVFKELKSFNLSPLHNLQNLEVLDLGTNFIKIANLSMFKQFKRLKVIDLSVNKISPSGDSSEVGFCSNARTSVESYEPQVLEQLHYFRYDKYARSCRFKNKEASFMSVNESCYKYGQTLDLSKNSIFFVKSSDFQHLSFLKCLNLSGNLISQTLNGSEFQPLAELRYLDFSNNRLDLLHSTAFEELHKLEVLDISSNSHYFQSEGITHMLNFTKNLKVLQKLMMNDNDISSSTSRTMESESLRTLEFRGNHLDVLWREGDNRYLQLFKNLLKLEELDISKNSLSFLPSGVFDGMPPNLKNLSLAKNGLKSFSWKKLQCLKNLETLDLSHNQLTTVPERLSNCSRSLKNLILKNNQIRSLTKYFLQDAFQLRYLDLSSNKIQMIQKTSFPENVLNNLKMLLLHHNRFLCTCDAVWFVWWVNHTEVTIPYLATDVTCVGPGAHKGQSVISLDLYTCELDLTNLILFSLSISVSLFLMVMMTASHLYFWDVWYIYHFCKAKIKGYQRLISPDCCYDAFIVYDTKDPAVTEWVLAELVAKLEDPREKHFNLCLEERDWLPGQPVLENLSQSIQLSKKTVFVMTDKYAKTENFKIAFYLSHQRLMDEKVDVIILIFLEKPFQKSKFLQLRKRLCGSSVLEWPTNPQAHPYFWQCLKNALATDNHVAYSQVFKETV
Description: HEK-Blue human TLR7 cell SEAP reporter assay (NF-κB activation). To be noted: HEK-Blue human TLR7 cells, stimulation for 20 hours, Quanti Blue read at 640 nm.
Text: as §1

The subject of a further assay is TNFα. Description: PBMC cytokine profiling assay, TNFα induction. To be noted: Homo sapiens, 24 h, human PBMCs, 24 hours incubation. The method, then: (§2) Compounds were dissolved and stored in DMSO (Sigma-Aldrich, St. Louis, Mo.) at 10 mM concentration.
(§3) Cryopreserved human PBMCs isolated from healthy donors were purchased from StemCell Technologies (Vancouver, Canada). Cell culture medium used was RPMI with L-Glutamine (Mediatech, Manassas, Va.) supplemented with 10% fetal bovine serum (Hyclone, GE Healthcare, Logan, Utah) and Penicillin-Streptomycin (Mediatech). Human TNFα, IL12p40, and IFNα2a 384-well Assay capture plates, standards, buffers and processing reagents were obtained from MesoScale Discovery Technologies (MSD; Rockville, Md.).
(§4) Cryopreserved human PBMCs (1×10e8 cells/ml) were thawed at 37° C. and resuspended in 25 mL warm cell culture medium. The cells were pelleted at 200×g (Beckman Avanti J-E) for 5 min and resuspended in 20 mL of fresh culture media. Cells were counted using a Cellometer (Nexcelcom Bioscience), adjusted to 2×10e6 cells, and incubated for 2 hours in an incubator set at 37° C., 5% CO2 to recover from cryopreservation. […]
(§5) Using a Biomek FX 384 well pipetting station (Beckman), conditioned culture medium (CCM) from the assay plate was transferred to MSD capture plates customized for each cytokine. […] MSD Read Buffer diluted to 2× in deionized water and 35 μL/well was added via Biomek FX instrument. The plates were read immediately in a MSD6000 reader. […]

A further assay relates to IL12p40. As to the kind of experiment: PBMC cytokine profiling assay, IL12-p40 induction. Particulars: Homo sapiens, 24 h, human PBMCs, 24 hours incubation. As for the experimental part:
as §2, §3, §4, §5

For another assay, the system named is IFNα. As to the kind of experiment: PBMC cytokine profiling assay, IFNα induction. To be noted: Homo sapiens, 24 h, human PBMCs, 24 hours incubation. The method, then: as §2, §3, §4, §5

One may read the EC50 as the concentration giving half of the maximal effect. Low readings indicate greater potency, high ones weaker potency. On to `CCCN(CCC)C(=O)C1=Cc2ccc(-c3cccnc3)cc2N=C(N)C1` [VTX-133, reference compound], for which the EC50 at human TLR8 came out at 77 nM; at human TLR7, 1860 nM.
The corresponding values for `CCCN(CCC)C(=O)C1=Cc2ccc(-c3cncnc3)cc2N=C(N)C1` [VTX-135, reference compound] are 39 nM and 3610 nM.
One may read the AC50 as the concentration at which the activity in the assay is half-maximal. Regarding `CCCC[C@@H](Nc1nc(N)nc2cccnc12)[C@H](C)O` [Compound 86], the AC50 with TNFα came to 2900 nM; in the assay with IL12p40 it was 2400 nM; in the assay with IFNα, 37.4 µM.
